Source: patent EP0104572A1, “Benzyl ethers of phenol Mannich bases, process for their production, their use and pharmaceutical preparations based on these compounds, intermediates and process for their production” (priority 1982, dated 1984)
Where two headings read alike, the source gives them in different places.

Assays:
Serum-Lipoproteine = assay: Change of serum and lipoprotein-fraction cholesterol in rats after 7 days of oral treatment (ultracentrifuge fractionation, CHOD-PAP cholesterol); type: in vivo, männlichen Wistar-Ratten; conditions: for change in vivo at 10 mg/kg / change in vivo at 1 mg/kg / change in vivo at 3 mg/kg / change in vivo at 20 mg/kg / change in vivo at 30 mg/kg / change in vivo at 100 mg/kg: Rattus norvegicus, 168 h, oral (gavage), 7 days, male Wistar rats; for change in vivo at 10 mg/kg: 10 mg/kg / Tag; for change in vivo at 1 mg/kg: 1 mg/kg / Tag; for change in vivo at 3 mg/kg: 3 mg/kg / Tag; for change in vivo at 20 mg/kg: 20 mg/kg / Tag; for change in vivo at 30 mg/kg: 30 mg/kg / Tag; for change in vivo at 100 mg/kg: 100 mg/kg / Tag
Description: (§1) Die Wirkung der angeführten Verbindungen auf die Serum- Lipoproteine wurde an männlichen Wistar-Ratten untersucht, die 7 Tage per Schlundsonde mit den angeführten in Polyäthylenglykol 400 suspendierten Verbindungen behandelt wurden. Außerdem wurde eine Kontrollgruppe, die nur das Lösungsmittel Polyäthylenglykol 400 erhielt, mitgeführt, sowie bei den meisten Versuchen eine Ratten-Gruppe mit dem Standardhypolipidämikum Clofibrat. Pro Gruppe wurden in der Regel 10 Tiere eingesetzt, denen am Ende der Behandlung das Blut nach leichter Äthernarkose aus dem Orbitalplexus entnommen wurde. Aus dem gewonnenen Ratten-Serum wurden die Serum- Lipoproteine in der präparativen Ultrazentrifuge in folgende Dichteklassen getrennt: VLDL < 1,006; LDL 1,006 bis 1,04; HDL 1,04 bis 1,21
Da nämlich im Gegensatz zum Menschen die Serumlipoproteine der Ratte etwa 4/5 HDL-Cholesterin und nur 1/5 LDL-Cholesterin enthalten und nur sehr geringe Mengen von VLDL (beim Menschen umgekehrt etwa 2/3 LDL und VLDL und nur 1/3 bis 1/4 HDL), macht die Beurteilung einer hypolipidämischen Wir- .kung an der Ratte unbedingt eine Fraktionierung des Ratten-serums in Lipoproteinklassen erforderlich. Eine bloße Erniedrigung des Serum-Total-cholesteringehaltes an der Ratte würde nämlich nur die unerwünschte Erniedrigung der bei der Ratte vorwiegenden antiatherogenen HDL-Klasse anzeigen. Eine erwünschte Erniedrigung von LDL bei gleichzeitiger erwünschter Vermehrung von HDL hätte aber keine (wesentliche) Auswirkung auf den Totalcholesteringehalt des Ratten-Serums.
Aus den in der Ultrazentrifuge isolierten LipoproteinFraktionen wurde das darin enthaltene Cholesterin vollenzymatisch nach der CHOD-PAP-Methode mittels der Testkombination von Boehringer-Mannheim bestimmt und die Werte in µg/ml Serum umgerechnet. In der angeführten Tabelle ist die Veränderung des Lipoprotein-Cholesterins in der behandelten Gruppe gegenüber einer unter gleichen Bedingungen mitgeführten Kontrollgruppe angegeben.
Veränderung in % der Lipoproteine im Ratten-Serum nach siebentägiger oraler Applikation der Verbindungen

[1] = Change of relative liver weight and liver findings in the 7-day oral rat study; type: in vivo, männlichen Wistar-Ratten; conditions: for % Veränderung des relativen Lebergewichtes: oral (gavage), 7 days, male Wistar rats
Description: Die erfindungsgemäßen Verbindungen haben wertvolle therapeutische Eigenschaften. So erniedrigen sie vor allem die Konzentration von LDL und VLDL, die HDL-Fraktion aber kaum, in vielen Fällen wird diese Fraktion sogar vermehrt. Diese Verbindungen stellen daher einen wesentlichen Fortschritt gegenüber der Vergleichsverbindung Clofibrat dar, wie aus .den nachfolgend beschriebenen Daten ersichtlich ist. Sie können daher zur Prophylaxe und Regression von arteriosklerotischen Veränderungen herangezogen werden, indem sie einen kausalen Risikofaktor ausschalten. Hierzu zählen nicht nur die primären Hyperlidämien, sondern auch gewisse sekundäre Hyperlipidämien wie sie z.B. beim Diabetes vorkommen. […] Die mit einer hypolipidämischen Wirkung verbundene unerwünschte Beeinflussung der Leber zeigt sich auch in sehr starkem Maße bei der in J.Med.Chem. 18 (1975) S. 833-836 beschriebenen Vergleichsverbindung 1-(4-Methylbenzyl)-imidazol. […] Die erfindungsgemäßen Verbindungen zeigen dieses unerwünschte Verhalten nicht.
as §1

[2] = read-out: Cholesterolveränderung in %, bezogen auf die Kontrollgruppe in den Serum-Lipoprotein-Fraktionen HDL
[3] = read-out: Cholesterolveränderung in %, bezogen auf die Kontrollgruppe in den Serum-Lipoprotein-Fraktionen LDL
[4] = read-out: Cholesterolveränderung in %, bezogen auf die Kontrollgruppe in den Serum-Lipoprotein-Fraktionen VLDL
[5] = read-out: Cholesterolveränderung in %, bezogen auf die Kontrollgruppe im Serum

CC(C)(C)C(=O)c1ccc(COc2c(Cl)cc(Cn3ccnc3)cc2Cl)cc1 [Beispiel 1.6]
change in vivo at 10 mg/kg (Serum-Lipoproteine; [2]): 7% | change in vivo at 10 mg/kg (Serum-Lipoproteine; [3]): -32%

Cc1cc(Cn2ccnc2)cc(Cl)c1OCc1ccc(C(=O)C(C)(C)C)cc1 [Beispiel 1, 4-[2-Chlor-4-(-imidazol-1-ylmethyl)-6-methylphenoxymethyl]-phenyl-tert.-butyl-keton]
change in vivo at 1 mg/kg (Serum-Lipoproteine; [2]): 8% | change in vivo at 1 mg/kg (Serum-Lipoproteine; [3]): -40% | change in vivo at 1 mg/kg (Serum-Lipoproteine; [4]): 0% | change in vivo at 3 mg/kg (Serum-Lipoproteine; [5]): -12% | change in vivo at 3 mg/kg (Serum-Lipoproteine; [2]): 3% | change in vivo at 3 mg/kg (Serum-Lipoproteine; [3]): -42% | change in vivo at 3 mg/kg (Serum-Lipoproteine; [4]): 0% | change in vivo at 10 mg/kg (Serum-Lipoproteine; [5]): -17% | change in vivo at 10 mg/kg (Serum-Lipoproteine; [2]): -5% | change in vivo at 10 mg/kg (Serum-Lipoproteine; [3]): -52% | change in vivo at 10 mg/kg (Serum-Lipoproteine; [4]): 0% | % Veränderung des relativen Lebergewichtes ([1]; 1 mg/kg / Tag): +4% | % Veränderung des relativen Lebergewichtes ([1]; 3 mg/kg / Tag): +9%

Cc1cc(Cn2ccnc2)cc(Cl)c1OCc1ccc(C(O)C(C)(C)C)cc1 (stereo not drawn) [Beispiel 5, α-Tert.-butyl-4-[2-Chlon-6-methyl-4-(imidazol-1-ylmekthyl)-phenoxymethyl]-benzylalkohol]
change in vivo at 1 mg/kg (Serum-Lipoproteine; [3]): -39% | change in vivo at 1 mg/kg (Serum-Lipoproteine; [4]): -13% | change in vivo at 3 mg/kg (Serum-Lipoproteine; [2]): 18% | change in vivo at 3 mg/kg (Serum-Lipoproteine; [3]): -47% | change in vivo at 3 mg/kg (Serum-Lipoproteine; [4]): -10% | change in vivo at 10 mg/kg (Serum-Lipoproteine; [5]): -23% | change in vivo at 10 mg/kg (Serum-Lipoproteine; [3]): -59% | change in vivo at 10 mg/kg (Serum-Lipoproteine; [4]): -46% | % Veränderung des relativen Lebergewichtes ([1]; 3 mg/kg / Tag): +13%

COc1cc(Cn2ccnc2)cc(OC)c1OCc1ccc(C(=O)C(C)(C)C)cc1 [Beispiel 1.8]
change in vivo at 20 mg/kg (Serum-Lipoproteine; [5]): -19% | change in vivo at 20 mg/kg (Serum-Lipoproteine; [2]): -4% | change in vivo at 20 mg/kg (Serum-Lipoproteine; [3]): -43% | change in vivo at 20 mg/kg (Serum-Lipoproteine; [4]): -19%

Cc1cc(Cn2ccnc2)cc(C)c1OCc1ccc(C2(C(C)(C)C)OCCO2)cc1 [Beispiel 1.52]
change in vivo at 30 mg/kg (Serum-Lipoproteine; [3]): -23% | change in vivo at 30 mg/kg (Serum-Lipoproteine; [4]): -36%

C=CCc1cc(Cn2ccnc2)cc(C)c1OCc1ccc(C(O)C(C)(C)C)cc1 (centres unmarked) [Beispiel 2.2]
change in vivo at 30 mg/kg (Serum-Lipoproteine; [2]): 14% | change in vivo at 30 mg/kg (Serum-Lipoproteine; [3]): -49% | change in vivo at 30 mg/kg (Serum-Lipoproteine; [4]): -34%

C=CCc1cc(Cn2ccnc2)cc(C)c1OCc1ccc(C(=O)C(C)(C)C)cc1 [Beispiel 1.2]
change in vivo at 30 mg/kg (Serum-Lipoproteine; [2]): 9% | change in vivo at 30 mg/kg (Serum-Lipoproteine; [3]): -39% | change in vivo at 30 mg/kg (Serum-Lipoproteine; [4]): -31%

Cc1cc(Cn2ccnc2)cc(C)c1OCc1ccc(C(=O)c2ccc(Cl)cc2)cc1 [Beispiel 1.46]
change in vivo at 10 mg/kg (Serum-Lipoproteine; [3]): -35% | change in vivo at 10 mg/kg (Serum-Lipoproteine; [4]): -29%

Cc1cc(Cn2ccnc2)cc(C)c1OCc1ccc(C(=O)C(C)(C)CCl)cc1 [Beispiel 1.16]
change in vivo at 3 mg/kg (Serum-Lipoproteine; [2]): -11% | change in vivo at 3 mg/kg (Serum-Lipoproteine; [3]): -32% | change in vivo at 3 mg/kg (Serum-Lipoproteine; [4]): -32% | change in vivo at 10 mg/kg (Serum-Lipoproteine; [5]): -15% | change in vivo at 10 mg/kg (Serum-Lipoproteine; [2]): -1% | change in vivo at 10 mg/kg (Serum-Lipoproteine; [3]): -52% | change in vivo at 10 mg/kg (Serum-Lipoproteine; [4]): -24%

CCOC(=O)C(C)(C)Oc1ccc(Cl)cc1 [Clofibrat, reference compound]
change in vivo at 100 mg/kg (Serum-Lipoproteine; [5]): -29% | change in vivo at 100 mg/kg (Serum-Lipoproteine; [2]): -34% | change in vivo at 100 mg/kg (Serum-Lipoproteine; [3]): -18% | change in vivo at 100 mg/kg (Serum-Lipoproteine; [4]): -48% | Wirkung auf die Lipoproteinfraktionen (VLDL, LDL, HDL) (Serum-Lipoproteine; statement in words summarising the table, rat serum, 7 days oral): stärkere Verminderung der HDL- als der LDL-Fraktion | relatives Lebergewicht ([1]; rat, in vivo): starken Erhöhung des relativen Lebergewichts

Cc1cc(Cn2cncn2)cc(Cl)c1OCc1ccc(C(=O)C(C)(C)C)cc1 [Beispiel 1.19]
change in vivo at 10 mg/kg (Serum-Lipoproteine; [5]): -11% | change in vivo at 10 mg/kg (Serum-Lipoproteine; [3]): -29% | change in vivo at 10 mg/kg (Serum-Lipoproteine; [4]): -35%

Cc1cc(Cn2ccnc2)cc(C)c1OCc1ccc(C(O)C(C)(C)C)cc1 (centres unmarked) [Beispiel 2.1]
change in vivo at 1 mg/kg (Serum-Lipoproteine; [2]): 17% | change in vivo at 1 mg/kg (Serum-Lipoproteine; [3]): -53% | change in vivo at 1 mg/kg (Serum-Lipoproteine; [4]): 17% | change in vivo at 10 mg/kg (Serum-Lipoproteine; [5]): -22% | change in vivo at 10 mg/kg (Serum-Lipoproteine; [3]): -66% | change in vivo at 10 mg/kg (Serum-Lipoproteine; [4]): -54% | % Veränderung des relativen Lebergewichtes ([1]; 1 mg/kg / Tag): +11%

C=CCc1cc(Cn2ccnc2)cc(Cl)c1OCc1ccc(C(=O)C(C)(C)C)cc1 [Beispiel 1.7]
change in vivo at 20 mg/kg (Serum-Lipoproteine; [5]): -18% | change in vivo at 20 mg/kg (Serum-Lipoproteine; [2]): -7% | change in vivo at 20 mg/kg (Serum-Lipoproteine; [3]): -43%

CC(C)c1cc(Cn2ccnc2)cc(C(C)C)c1OCc1ccc(C(O)C(C)(C)C)cc1 (centres unmarked) [Beispiel 2.4]
change in vivo at 30 mg/kg (Serum-Lipoproteine; [5]): -12% | change in vivo at 30 mg/kg (Serum-Lipoproteine; [3]): -38% | change in vivo at 30 mg/kg (Serum-Lipoproteine; [4]): -50%

Cc1cc(Cn2cccn2)cc(C)c1OCc1ccc(C(=O)C(C)(C)C)cc1 [Beispiel 1.21]
change in vivo at 30 mg/kg (Serum-Lipoproteine; [5]): 0% | change in vivo at 30 mg/kg (Serum-Lipoproteine; [3]): -35% | change in vivo at 30 mg/kg (Serum-Lipoproteine; [4]): -62%

Cc1ccc(Cn2ccnc2)cc1 [1-(4-Methyl-benyl)-imidazol, 1-(4-Methylbenzyl)-imidazol, reference compound]
change in vivo at 3 mg/kg (Serum-Lipoproteine; [5]): 11% | change in vivo at 3 mg/kg (Serum-Lipoproteine; [2]): 18% | change in vivo at 3 mg/kg (Serum-Lipoproteine; [3]): -5% | change in vivo at 3 mg/kg (Serum-Lipoproteine; [4]): 10% | change in vivo at 10 mg/kg (Serum-Lipoproteine; [5]): 16% | change in vivo at 10 mg/kg (Serum-Lipoproteine; [2]): 22% | change in vivo at 10 mg/kg (Serum-Lipoproteine; [3]): -3% | change in vivo at 10 mg/kg (Serum-Lipoproteine; [4]): -23% | change in vivo at 30 mg/kg (Serum-Lipoproteine; [5]): -44% | change in vivo at 30 mg/kg (Serum-Lipoproteine; [2]): -24% | change in vivo at 30 mg/kg (Serum-Lipoproteine; [3]): -90% | change in vivo at 30 mg/kg (Serum-Lipoproteine; [4]): -100% | unerwünschte Beeinflussung der Leber ([1]; rat, in vivo): massive Hepatomegalie mit massiven Neutralfett- und Cholesterineinlagerungen
